Results published in US20250368639A1, “SOLID FORMS OF A COMPOUND FOR TREATING OR PREVENTING HYPERURICEMIA OR GOUT” (ATOM THERAPEUTICS CO., LTD, priority 2022, published 2025).
Read-outs that look alike come from different tables or passages of the source.

Assays:
[1] = Dynamic vapor sorption/desorption (DVS); type: physicochemical
[2] = Suspensions for animal formulation in 0.5% CMC-Na (XRPD); type: physicochemical; details: about 30 mg in 30 ml, sonication
Experimental: About 30 mg of Form 1, Form 2, and Form 5D were each added into a respective 40 ml glass bottle and mixed with 30 ml of 0.5% CMC-Na solution. The solids were dispersed uniformly in the solution with the aid of sonication. After that, the solids were isolated by centrifugation, dried at room temperature, and the dry solid analyzed with XRPD.

[3] = Single-dose pharmacokinetic study, oral and intravenous, in SD rats; type: in vivo, SD rat; details: for AUC(0-t) / Cmax / MRT last / AUC(0-inf) / clearance / half-life / Vd / Vd/F: male, SD, rat, plasma; for AUC(0-inf): read-out: AUCINF—pred; for clearance: read-out: Cl—pred (converted); for half-life: read-out: HL_Lambda_z (T1/2) (converted); for Vd: read-out: Vz—pred; for Vd/F: read-out: Vz—F—pred
Experimental: Form 1, Form 2, and Form 5D were each evaluated via a single-dose pharmacokinetic study following oral and intravenous administration in SD rats. […] Form 1, Form 2, and Form 5Dwere evaluated by rat pharmacokinetics study.
Male SD rat was purchased from Shanghai Sippr B&K Laboratory Animals Co., Ltd. The weight was 180 g˜200 g.
20% HP-β-CD was prepared from dissolving20 g of HP-β-CD (from Sigma) in 100 mL purified water. 0.5% CMC-Na was prepared from dissolving 1 g of CMC-Na (from Aladdin) in 200 mL purified water. The solutions were stored at 2-8 degree.
Group 1:4.95 mg (equivalent to 4.50 mg of anhydrous free base) of Form 1 was weighed out into a 20 ml bottle, and totally dissolved by 0.225 mL DMSO by sonication. After that, 4.275 mL of 20% HP-β-CD was added, mixed well by sonication. Finally, the pH value was adjusted to 7.0 by sodium hydroxide solution. The clear solution was obtained, and the concentration was 1 mg/mL.
Group 2:10.08 mg (equivalent to 9.164 mg of anhydrous free base) of Form 1 was weighed out into a 20 ml bottle, and then 9.164 mL of 0.5% CMC-Na was added. A white suspension was formed after sonicated by ultrasonic cell disruptor, and the concentration was 1 mg/mL.
Group 3:9.47 mg of Form 2 was weighed out into a 20 ml bottle, and then 9.470 mL of 0.5% CMC-Na was added. After sonicated, it was mixed well by homogenizer for 2 minutes. Finally, a white suspension was formed, and the concentration was 1 mg/mL.
Group 4:9.80 mg (equivalent to 8.909 mg of free base) of Form 5Dwas weighed out into a 20 mL bottle, and then 8.909 mL of 0.5% CMC-Na was added. After sonicated, it was mixed well by homogenizer for 2 minutes. Finally, a white suspension was formed, and the concentration was 1 mg/mL.
Group 5:1.94 mg (equivalent to 1.763 mg of anhydrous free base) of Form 1 was weighed out into a 20 ml bottle, and totally dissolved by 0.088 mL DMSO by sonication. After that, 1.675 mL of 20% HP-β-CD was added, mixed well by sonication. Finally, the pH value was adjusted to 7.0 by sodium hydroxide solution. The clear solution was obtained, and the concentration was 0.2 mg/mL.
The dose of intravenous administration was 1 mg/kg and 5 mg/kg, respectively. The oral dose was 10 mg/kg. Animals were fasted overnight before drug administration. After the drug administration, the rats were fed at the 4 hours.
About 150˜200 μL of blood was collected at the initial time (only intravenous), and at 0.25, 0.5, 1, 2, 4, 6, 8 and 24 h by jugular venipuncture blooding method. EDTA-K2 was selected as anticoagulant. Blood samples were centrifuged within one hour at 6000 rpm for 8 minutes (placed on wet ice before centrifugation). The supernatant was stored at −20° C. for LC-MS/MS analysis.
The computer program Microsoft Office Excel 2007 (Microsoft, USA) was used to process data and graphics. The pharmacokinetic parameters were calculated by WinNolin 6.4 software.

[4] = Solid state stability under stress conditions (XRPD, HPLC); type: physicochemical; details: closed vial about 60° C.; closed vial about 40° C./75% RH; 1 week and 2 weeks
Experimental: Form 1. Form 2, Form 6, Form 8, and Form 11 were each placed under following stress conditions: (1) in a closed vial at a temperature of about 60° C., and (2) in a closed vial at a temperature of about 40′° C. and a humidity of about 75% RH. The solids were analyzed with XRPD at 1 week and 2 weeks intervals.
Additionally, all forms were analyzed with HPLC for impurity at the 1 week and 2 weeks intervals. In a typical analysis, about 5 mg of forms were each dissolved in 10 ml of diluents with the aid of sonication for 2 minutes. THF was used as the diluent for Form 1, and methanol was used as the diluent for Form 6, Form 8, and Form 11. The HPLC analysis utilized Agilent Eclipse XDB-C18 4.6*150 mm. 3.5 μm at 30° C., a mobile phase of a gradient between 0.1% H3PO4 and acetonitrile (9:1 to 2:8 to 9:1), an injection volume of 10 μl, a flow rate of 1.0 ml/min, and a detection wavelength of 214 nm.
Form 2 was further subject to the stability test in an open vial at 40° C. and a relative humidity of 75% RH.

[5] = iv, 1 mg/kg, male SD rats, intravenous 1 mg/kg, Average
[6] = iv, 1 mg/kg, male SD rats, intravenous 1 mg/kg, individual rats 501/502/503 (c1/c2/c3)
[7] = iv, 5 mg/kg, male SD rats, 5 mg/kg (intravenous), Average
[8] = iv, 5 mg/kg, male SD rats, 5 mg/kg (intravenous), individual rats 101/102/103 (c1/c2/c3)
[9] = po, 10 mg/kg, male SD rats, oral 10 mg/kg, Average (Table 9)
[10] = po, 10 mg/kg, male SD rats, oral 10 mg/kg, individual rats 201/202/203 (c1/c2/c3)

For `CCc1nc2ccccn2c1C(=O)c1cc(Br)c(O)c(C#N)c1` [Form 1, 3-bromo-5-[(2-ethylimidazo[1,2-a]pyridin-3-yl)carbonyl]-2-hydroxybenzonitrile], the “DVS (80% RH)” value ([1]; 25° C., 80% RH) was 5.32%, the “DVS (85% RH)” value ([1]; 25° C., 85% RH) was 5.68% and the “Moisture absorbed (DVS)” value ([1]; relative humidity cycled from 0% RH to 5% RH) was “about 3.4 % by weight”. The “Crystal form after dispersion in 0.5% CMC-Na solution (XRPD)” value [2] was “did not change”, the “Exposure at 5 mg/kg relative to 1 mg/kg” value ([3]; SD rats, intravenous administration, 5 mg/kg versus 1 mg/kg) was “about 5 times” and the “Exposure and bioavailability (words, comparison)” value ([3]; SD rats, oral administration 10 mg/kg, 10 mg/kg) was “sufficiently high bioavailability”. For the same compound, the “Cl—F—pred” value ([3]; male SD rats, oral 10 mg/kg, Average (Table 9)) was 2.17 mL/min/kg, the F ([3]; male SD rats, oral 10 mg/kg, calculated by intravenous administration of 1 mg/kg, Average (Table 9)) was 43.54% and the AUC(0-t) [3, 5] was 17400 ng·h/mL. The Cmax [3, 5] was 9580 ng/mL, the MRT last [3, 5] was 3.65 h and the AUC(0-inf) [3, 5] was 17400 ng·h/mL. For the same compound, the clearance [3, 5] was 1 mL/min/kg, the half-life [3, 5] was 2.9 h and the Vd [3, 5] was 0.24 L/kg. It also gave an AUC(0-t) [3, 6] of 18500 ng·h/mL, a Cmax [3, 6] of 7120 ng/mL and an MRT last [3, 6] of 3.99 h. For the same compound, the AUC(0-inf) [3, 6] was 18500 ng·h/mL, the clearance [3, 6] was 0.833 mL/min/kg and the half-life [3, 6] was 3.2 h. For the same compound, the Vd [3, 6] was 0.25 L/kg, the AUC(0-t) [3, 7] was 80200 ng·h/mL and the Cmax [3, 7] was 51400 ng/mL. The MRT last [3, 7] was 3.44 h, the AUC(0-inf) [3, 7] was 80500 ng·h/mL and the clearance [3, 7] was 1 mL/min/kg. It also gave a half-life [3, 7] of 3.08 h, a Vd [3, 7] of 0.28 L/kg and an AUC(0-t) [3, 8] of 90800 ng·h/mL. For the same compound, the Cmax [3, 8] was 55700 ng/mL, the MRT last [3, 8] was 3.65 h and the AUC(0-inf) [3, 8] was 91100 ng·h/mL. The clearance [3, 8] was 0.833 mL/min/kg, the half-life [3, 8] was 3.12 h and the Vd [3, 8] was 0.25 L/kg. For the same compound, the AUC(0-t) [3, 9] was 75600 ng·h/mL, the Cmax [3, 9] was 6480 ng/mL and the MRT last [3, 9] was 6.51 h. The AUC(0-inf) [3, 9] was 76200 ng·h/mL, the half-life [3, 9] was 3.16 h and the Vd/F [3, 9] was 0.61 L/kg. For the same compound, the AUC(0-t) [3, 10] was 71500 ng·h/mL, the Cmax [3, 10] was 6030 ng/mL and the MRT last [3, 10] was 6.64 h. For the same compound, the AUC(0-inf) [3, 10] was 72100 ng·h/mL, the half-life [3, 10] was 3.15 h and the Vd/F [3, 10] was 0.63 L/kg. For the same compound, the “XRPD pattern after stress storage” value [4] was “substantially similar to those received at the initial time”.
